Results on 57 molecules are retold here after the OPERA property sets (Mansouri et al. 2018).

Each structure is given as a SMILES string.

What is called boiling point is the temperature at which the vapour pressure of the liquid equals the pressure above it. Take `Cc1nccs1`: the boiling point is 128 °C.
`Clc1ccc(Cl)c(-c2c(Cl)cccc2Cl)c1Cl` displayed a log10 Koa of 8.53.
As to `CC(C)COc1ccccc1`, the boiling point was 198 °C.
What is called melting point is the temperature, or range, at which the solid turns liquid. Take `CC(C)C(N)=O`: the boiling point amounted to 218 °C and the melting point worked out at 128 °C.
`ClC1=C(Cl)C2(Cl)C3C4C=CC(C4)C3C1(Cl)C2(Cl)Cl` (stereo unspecified): the ready biodegradability entry is “not readily biodegradable”.
`O=C(O)c1ccccc1C(=O)c1ccccc1` gave a boiling point of 261 °C and a melting point of 127 °C.
Molecule `c1ccc(OCCOc2ccccc2)cc1` registered a melting point of 98 °C.
The molecule `COc1ccc(CCCO)cc1` returned a melting point of 26 °C.
For `BrCCCCCCCCCCCCBr`, the melting point was 41 °C.
Molecule `CCc1ccc(C)nc1` had a boiling point of 178 °C, a log10 vapour pressure (mmHg) of 0.155 and a melting point of -70.9 °C.
Turning to `NNC(N)=O`, the melting point is 96 °C.
Same read-out and setting: with `N#CC(O)c1ccccc1` (stereo unspecified) the figure was -10 °C.
In the case of `C[S@](=O)c1ccccc1`, the boiling point worked out at 264 °C and the melting point was 32 °C.
The molecule `C=CCc1ccccc1OCC(O)CNC(C)C` (stereo unspecified) gave a melting point of 108 °C.
`C=CCc1cc(Cl)ccc1O`: the melting point amounted to 48 °C.
Take `CC(C)(Br)Br`: the boiling point turned out to be 115 °C.
In turn, `O=c1[nH]c(=O)n([C@H]2C[C@H](O)[C@@H](CO)O2)cc1C(F)(F)F` displayed a melting point of 188 °C.
Turning to `CCCCCCCC(=O)O`, the boiling point was determined as 239 °C, the log10 vapour pressure (mmHg) was -2.43, the melting point was found to be 16.3 °C and the ready biodegradability entry is “readily biodegradable”.
The molecule `Cc1ccc2c(c1C)CCCC2` yielded a boiling point of 252 °C.
`CCc1ccccc1Br` showed a boiling point of 199 °C and a melting point of -67.9 °C.
Consider `Fc1c(F)c(F)c(Sc2c(F)c(F)c(F)c(F)c2F)c(F)c1F`, for which the melting point is 87 °C.
In turn, `OC[C@H]1O[C@@H](Oc2ccc(O)cc2)[C@H](O)[C@@H](O)[C@@H]1O` registered a melting point of 200 °C.
As to `C[Si](C)(C)C#C[Si](C)(C)C`, the boiling point turned out to be 134 °C and the melting point was 26 °C.
For the molecule `NS(=O)(=O)c1cc(C(=O)c2ccc(O)cc2)cs1`, the melting point is 192 °C.
The molecule `Cl.NCCc1ccccc1` yielded a melting point of 218 °C.
`CS(C)=O` registered a boiling point of 189 °C, a log10 Henry constant (atm·m³/mol) of -8.82, a log10 Koa of 4.96 and a log10 vapour pressure (mmHg) of -0.215. For the same molecule, the melting point is 18.5 °C and the ready biodegradability entry is reported as “not readily biodegradable”.
`Cc1ccc(C(C)C)c(C)c1` showed a boiling point of 197 °C and a melting point of -82 °C.
With `COC(=O)c1ccccc1S(=O)(=O)NC(=O)Nc1nc(C)nc(OC)n1`, the log10 Koc (L/kg) came to 1.54 and the melting point came out at 162 °C.
With `Cc1ccc(C)c(O)c1`, the boiling point was 211 °C, the log10 Henry constant (atm·m³/mol) was -5.95, the log10 vapour pressure (mmHg) is -0.807 and the melting point came out at 74.8 °C. Also, the ready biodegradability result is on record as “not readily biodegradable”.
Take `CCOCC`: the boiling point was determined as 34.6 °C, the log10 Henry constant (atm·m³/mol) was -2.91, the log10 Koa was found to be 2.19 and the log10 vapour pressure (mmHg) came to 2.73. Besides, the melting point is -116 °C and the ready biodegradability result is given as “not readily biodegradable”.
With `FC(OC(F)(F)C(F)(F)C(F)(F)F)C(F)(F)F` (stereo unspecified), the boiling point worked out at 41 °C.
As for `Brc1cccnc1`, the boiling point is 173 °C and the log10 vapour pressure (mmHg) was determined as 0.244.
Molecule `C=C(C)C(CC)CC` registered a boiling point of 110 °C and a melting point of -113 °C.
In turn, `CCP(=O)(c1ccccc1)c1ccccc1` displayed a melting point of 122 °C.
Regarding `Oc1nc(O)nc(O)n1`, the melting point amounted to 360 °C and the ready biodegradability result is recorded as “readily biodegradable”.
As for `CCCC(=O)Oc1ccccc1`, the boiling point was 225 °C.
As to `CCC(=O)Oc1ccccc1`, the boiling point was determined as 211 °C and the melting point was found to be 20 °C.
Take `c1ccc(N2CCCCC2)cc1`: the boiling point amounted to 258 °C and the melting point worked out at 4.7 °C.
For the molecule `COC(=O)c1cc(Cl)ccc1O`, the melting point is 50 °C.
Same read-out and setting: under `O=C(O)c1cccc(F)c1` stands 124 °C.
For the molecule `Cc1cccc(C)c1N(Cn1cccn1)C(=O)CCl`, the log10 Henry constant (atm·m³/mol) is -9.25 and the melting point stood at 85 °C.
With `Nc1ccc(S(=O)(=O)c2ccc(NC(=O)CCC(=O)O)cc2)cc1`, the melting point was 157 °C.
`CB(C)C` registered a boiling point of -20.2 °C and a melting point of -162 °C.
In turn, `O=C(OC[C@H]1O[C@](O)(COC(=O)c2cccnc2)[C@@H](OC(=O)c2cccnc2)[C@@H]1OC(=O)c1cccnc1)c1cccnc1` registered a melting point of 141 °C.
Regarding `CC(C)Br`, the boiling point amounted to 59.5 °C, the log10 vapour pressure (mmHg) turned out to be 2.34, the melting point is -89 °C and the ready biodegradability result is given as “readily biodegradable”.
For `CCN(CC)c1ccc(C(=O)c2ccccc2C(=O)O)c(O)c1`, the ready biodegradability entry is given as “not readily biodegradable”.
In turn, `CCOC(O)C(Cl)(Cl)Cl` (stereo unspecified) yielded a boiling point of 116 °C and a melting point of 56.5 °C.
`CC(=O)OC(OC(C)=O)c1ccc([N+](=O)[O-])o1`: the melting point is 91 °C.
`O=c1ccc2ccc(O)cc2o1` returned a melting point of 230 °C.
With `Cc1cc(C)nc(Nc2ccccc2)n1`, the log10 vapour pressure (mmHg) was -4.78 and the melting point amounted to 96.3 °C.
Turning to `CCCOC(=O)CCC(=O)OCCC`, the boiling point turned out to be 251 °C and the melting point is -5.9 °C.
With `Nc1cc(Cl)ccc1Cl`, the boiling point stood at 251 °C, the melting point amounted to 50 °C and the ready biodegradability entry is on record as “not readily biodegradable”.
The molecule `O=C(O)C(Cc1ccccc1)Cc1ccccc1` came in with a melting point of 90 °C.
As for `COC(=O)c1c[nH]c2ccccc12`, the melting point stood at 150 °C.
`O=C(O)c1cccc(F)c1F` yielded a melting point of 164 °C.
`CCC(C#N)CC#N` (stereo unspecified) displayed a boiling point of 264 °C, a log10 vapour pressure (mmHg) of -1.72 and a melting point of -41 °C.
`C=CCOC(=O)CC(C)=O` returned a boiling point of 196 °C and a melting point of -85 °C.
